One test concerns the target T1, Full-length human PRMT3 (Homo sapiens, UniProt O60678).
T1 construct: GST-tagged PRMT3; made in house; host or cells: E. coli BL21(DE3) Gold (pGEX-KG)
Nature of the test: PRMT3 biochemical assay (3H-SAM Flashplate, peptide substrate). A digest of the protocol:
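GST-tagged full-length PRMT3 (0.5 nM, E. coli-expressed) preincubated 30 min at room temperature with compound, then 330 nM biotinylated peptide, 100 nM 3H-SAM plus 1.8 uM SAM in Bicine pH 7.6, 2% DMSO.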

The test system of test [1] is mono-methyl arginine in RKO cells. The test is described as follows: RKO methylation assay, In Cell Western for mono-methyl arginine and DNA content. The settings on record: Homo sapiens. Format: cell-based.
[2] abbreviates: In Cell Western, RKO cells, 72 hours, percent activation of mono-methyl arginine signal, read-out: EC30.

Usually IC50 stands for the concentration that gives 50% inhibition. The EC30 is the point of the concentration-response curve where the effect stands at 30%.

SMILES strings stand for the structures. Where two headings read alike, the source gives them in different places.

T1 sequence (O60678 with tags, fused parts or gaps): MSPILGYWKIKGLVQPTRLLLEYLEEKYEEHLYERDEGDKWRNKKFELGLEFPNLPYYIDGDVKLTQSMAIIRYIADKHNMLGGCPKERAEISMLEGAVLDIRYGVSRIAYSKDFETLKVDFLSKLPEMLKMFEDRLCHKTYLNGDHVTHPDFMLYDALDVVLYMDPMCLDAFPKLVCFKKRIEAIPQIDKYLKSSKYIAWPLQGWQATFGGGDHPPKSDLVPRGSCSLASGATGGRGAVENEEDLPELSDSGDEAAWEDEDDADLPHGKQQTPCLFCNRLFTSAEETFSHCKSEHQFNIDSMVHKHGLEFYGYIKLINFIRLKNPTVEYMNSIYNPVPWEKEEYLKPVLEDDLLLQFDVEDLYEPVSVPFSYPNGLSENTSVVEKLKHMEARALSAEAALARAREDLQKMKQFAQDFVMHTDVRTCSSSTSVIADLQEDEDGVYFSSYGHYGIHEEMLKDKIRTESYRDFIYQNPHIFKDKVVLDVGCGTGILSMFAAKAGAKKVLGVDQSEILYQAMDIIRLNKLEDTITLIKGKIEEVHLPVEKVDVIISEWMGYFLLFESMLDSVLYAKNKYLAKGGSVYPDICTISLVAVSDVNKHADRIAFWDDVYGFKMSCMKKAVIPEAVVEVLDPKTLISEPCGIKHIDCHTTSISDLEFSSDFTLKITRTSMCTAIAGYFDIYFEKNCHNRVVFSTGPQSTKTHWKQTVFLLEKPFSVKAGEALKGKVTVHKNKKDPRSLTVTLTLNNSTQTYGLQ

In turn, `CNCCN(C)Cc1c[nH]nc1-c1ccc(F)c(F)c1` [Compound 51] showed an IC50 at Full-length human PRMT3 of 3.01 to 10 µM. Also, the EC30 in test [1] (setting [2]) was > 12 µM.

Turning to `CN(CCN)Cc1c[nH]nc1-c1ccc(OC(F)(F)F)cc1` [Compound 93], the IC50 against Full-length human PRMT3 is 3.01 to 10 µM. In addition, in test [1] (setting [2]), the EC30 is < 3 µM.

For `CN(CCN)Cc1cnn(C2COC2)c1-c1ccc(F)cc1` [Compound 81], the IC50 against Full-length human PRMT3 is > 10 µM. The EC30 in test [1] (setting [2]) is > 12 µM.

As to `Cc1ccc(Cl)c(-c2n[nH]cc2CN(C)CCN)c1` [Compound 91], the IC50 on Full-length human PRMT3 was > 10 µM. Also, the EC30 in test [1] (setting [2]) is > 12 µM.

For the compound `COc1ccc(-c2n[nH]cc2CN(C)CCN)c(OC)c1` [Compound 87], on Full-length human PRMT3, the IC50 was > 10 µM. Also, in test [1] (setting [2]), the EC30 was > 12 µM.

On to `CNCCN(C)Cc1c[nH]nc1-c1ccccc1O` [Compound 35], for which the concentration for half-maximal inhibition (IC50) at Full-length human PRMT3 is > 10 µM. In addition, the EC30 in test [1] (setting [2]) is > 12 µM.

Consider `CNCCN(C)Cc1c[nH]nc1-c1ccccc1F` [Compound 48], for which the IC50 at Full-length human PRMT3 is > 10 µM. Moreover, the EC30 in test [1] (setting [2]) was > 12 µM.

Compound `CNCCN(C)Cc1c[nH]nc1-c1ccc(F)cc1` [Compound 2, N^1-((3-(4-fluorophenyl)-1H-pyrazol-4-yl)methyl)-N^1,N^2-dimethylethane-1,2-diamine] came in with an IC50 at Full-length human PRMT3 of 3.01 to 10 µM. Moreover, the EC30 in test [1] (RKO, 72 h) is > 12 µM.

Take `CN(CCN)Cc1c(-c2ccc(C#N)cc2)cnn1C` [Compound 84]: the IC50 at Full-length human PRMT3 was > 10 µM. Also, the EC30 in test [1] (setting [2]) is > 12 µM.

For `CCCN(CCN)Cc1c[nH]nc1-c1ccc(F)cc1` [Compound 63], the IC50 at Full-length human PRMT3 was > 10 µM. Also, the EC30 in test [1] (setting [2]) is > 12 µM.

As for `CNCCN(C)Cc1c[nH]nc1-c1cccc(OC(F)(F)F)c1` [Compound 39], at Full-length human PRMT3, the IC50 was > 10 µM. The EC30 in test [1] (setting [2]) is > 12 µM.

For the compound `CC(C)Oc1ccc(-c2n[nH]cc2CN(C)CCN)cc1Cl` [Compound 168], the IC50 at Full-length human PRMT3 fell in the range of 3.01 to 10 µM. Besides, the EC30 in test [1] (setting [2]) is < 3 µM.

As to `CN(CCN)Cc1cnn(C)c1-c1ccc(F)cc1` [Compound 4], the IC50 at Full-length human PRMT3 was > 10 µM. In addition, the EC30 in test [1] (RKO, 72 h) was > 12 µM.

As for `CN(CCN)Cc1cn(C)nc1-c1ccc(F)cc1` [Compound 3], the IC50 at Full-length human PRMT3 was > 10 µM. Also, the EC30 in test [1] (setting [2]) was > 12 µM.

Regarding `CCNCCN(C)Cc1c[nH]nc1-c1ccc(F)cc1` [Compound 60], the IC50 on Full-length human PRMT3 is > 10 µM. In addition, the EC30 in test [1] (setting [2]) is > 12 µM.

`CNCCN(C)Cc1c[nH]nc1-c1cccc(N)c1` [Compound 32]: the IC50 against Full-length human PRMT3 fell in the range of 1.01 to 3 µM. In addition, the EC30 in test [1] (setting [2]) was > 12 µM.

For the compound `CN(CCN)Cc1c[nH]nc1-c1ccc(C#N)cc1` [Compound 68], on Full-length human PRMT3, the IC50 lay within 3.01 to 10 µM. In test [1] (setting [2]), the EC30 is > 12 µM.

For the compound `CN(CCN)Cc1cn(CC2COC2)nc1-c1ccc(F)cc1` [Compound 79], on Full-length human PRMT3, the IC50 was > 10 µM. In addition, in test [1] (setting [2]), the EC30 was > 12 µM.

In turn, `CN(CCN)Cc1c[nH]nc1-c1ccc(N2CCNCC2)cc1` [Compound 82] showed an IC50 at Full-length human PRMT3 of 1.01 to 3 µM. In test [1] (setting [2]), the EC30 was > 12 µM.

Regarding `CNCCN(C)Cc1c[nH]nc1-c1ccccc1-c1ccccc1` [Compound 46], on Full-length human PRMT3, the IC50 is > 10 µM. Besides, the EC30 in test [1] (setting [2]) is > 12 µM.

With `CNCCN(C)Cc1cnn(C)c1-c1ccc(F)cc1` [Compound 10], on Full-length human PRMT3, the IC50 was > 10 µM. For the same compound, the EC30 in test [1] (setting [2]) was > 12 µM.

Turning to `CNCCN(C)Cc1c[nH]nc1-c1cccc(NC(C)=O)c1` [Compound 42], the IC50 at Full-length human PRMT3 was in the range of 1.01 to 3 µM. The EC30 in test [1] (setting [2]) was > 12 µM.

On to `CN(CCN)Cc1nn(C)cc1-c1ccc(C#N)cc1` [Compound 83], for which the IC50 on Full-length human PRMT3 was > 10 µM. The EC30 in test [1] (setting [2]) was in the range of 3.01 to 12 µM.

`CN(CCN)Cc1c[nH]nc1-c1ccc(Cl)cc1Cl` [Compound 86] displayed an IC50 against Full-length human PRMT3 of 3.01 to 10 µM. For the same compound, the EC30 in test [1] (setting [2]) lay within 3.01 to 12 µM.

On to `CC(C)N(CCN)Cc1c[nH]nc1-c1ccc(F)cc1` [Compound 75], for which the IC50 on Full-length human PRMT3 is > 10 µM. In test [1] (setting [2]), the EC30 was > 12 µM.

`CNCCN(C)Cc1cn(CC2CCOCC2)nc1-c1ccc(F)cc1` [Compound 11]: at Full-length human PRMT3, the IC50 was > 10 µM. Besides, in test [1] (setting [2]), the EC30 is > 12 µM.

With `CNCCN(C)Cc1c[nH]nc1-c1ccc(OC)c(F)c1` [Compound 52], at Full-length human PRMT3, the IC50 lay within 3.01 to 10 µM. In addition, the EC30 in test [1] (setting [2]) was > 12 µM.

For `CNCCN(C)Cc1c[nH]nc1-c1cccc(C(C)=O)c1` [Compound 44], the IC50 against Full-length human PRMT3 was 3.01 to 10 µM. Further, the EC30 in test [1] (setting [2]) was > 12 µM.

On to `COCCn1cc(CN(C)CCN(C)C)c(-c2ccc(F)cc2)n1` [Compound 61], for which the IC50 against Full-length human PRMT3 was > 10 µM. Further, in test [1] (setting [2]), the EC30 was > 12 µM.

At Full-length human PRMT3, `CN(CCN)Cc1cn(C2COC2)nc1-c1ccc(F)cc1` [Compound 77] yielded an IC50 of 3.01 to 10 µM. The EC30 in test [1] (RKO, 72 h) is > 12 µM.

Regarding `CNCCN(C)Cc1c[nH]nc1-c1ccc(CC#N)cc1` [Compound 34], the IC50 on Full-length human PRMT3 is > 10 µM. For the same compound, the EC30 in test [1] (setting [2]) was > 12 µM.

`CCN(CCNC)Cc1c[nH]nc1-c1ccc(F)cc1` [Compound 9]: the IC50 at Full-length human PRMT3 lay in the range of 3.01 to 10 µM. The EC30 in test [1] (setting [2]) is > 12 µM.

Turning to `CN(CCN)Cc1c[nH]nc1-c1cccc(C#N)c1` [Compound 70], the IC50 against Full-length human PRMT3 was > 10 µM. For the same compound, in test [1] (setting [2]), the EC30 was > 12 µM.

`CN(CCN)Cc1cn(CC(O)CO)nc1-c1ccc(F)cc1` (centres unmarked) [Compound 76]: the IC50 against Full-length human PRMT3 was > 10 µM. The EC30 in test [1] (setting [2]) is > 12 µM.

Turning to `CNCCN(C)Cc1c[nH]nc1-c1ccccc1Oc1ccccc1` [Compound 36], on Full-length human PRMT3, the IC50 was > 10 µM. Moreover, the EC30 in test [1] (setting [2]) was > 12 µM.

As for `CN(CCN)Cc1cn(CCO)nc1-c1ccc(F)cc1` [Compound 66], the IC50 against Full-length human PRMT3 was > 10 µM. Moreover, the EC30 in test [1] (setting [2]) is > 12 µM.

Regarding `CN(CCN)Cc1cnn(CCO)c1-c1ccc(F)cc1` [Compound 65], the IC50 against Full-length human PRMT3 is > 10 µM. Moreover, the EC30 in test [1] (setting [2]) was > 12 µM.

For `CNCCN(C)Cc1c[nH]nc1-c1ccccc1NS(C)(=O)=O` [Compound 41], the IC50 at Full-length human PRMT3 was > 10 µM. The EC30 in test [1] (setting [2]) was > 12 µM.

Consider `Cc1ccc(-c2n[nH]cc2CN(C)CCN)c(C)c1` [Compound 88], for which the IC50 against Full-length human PRMT3 fell in the range of 3.01 to 10 µM. For the same compound, the EC30 in test [1] (setting [2]) is > 12 µM.

Take `CN(CCN)Cc1c[nH]nc1-c1ccc(C(C)(C)C)cc1` [Compound 74]: the IC50 against Full-length human PRMT3 is > 10 µM. The EC30 in test [1] (setting [2]) is 3.01 to 12 µM.

For `CN(CCN)Cc1c[nH]nc1-c1cccc(F)c1` [Compound 71], on Full-length human PRMT3, the 50% inhibitory concentration (IC50) is > 10 µM. In addition, the EC30 in test [1] (setting [2]) is 3.01 to 12 µM.

As for `CN(CCN)Cc1c[nH]nc1-c1ccccc1F` [Compound 72], on Full-length human PRMT3, the IC50 is > 10 µM. The EC30 in test [1] (setting [2]) was > 12 µM.

In the case of `CNCCN(C)Cc1c[nH]nc1-c1c(OC)cccc1OC` [Compound 56], the IC50 at Full-length human PRMT3 is > 10 µM. For the same compound, in test [1] (setting [2]), the EC30 is > 12 µM.

At Full-length human PRMT3, `CN(CCN)Cc1c[nH]nc1-c1ccc(OC(F)F)cc1` [Compound 94] registered an IC50 of 3.01 to 10 µM. For the same compound, in test [1] (setting [2]), the EC30 was < 3 µM.

On Full-length human PRMT3, `CN(CCN)Cc1cn[nH]c1-c1ccc(F)cc1` [Compound 1] registered an IC50 of 1.01 to 3 µM. Also, in test [1] (setting [2]), the EC30 was in the range of 3.01 to 12 µM.

Take `CCN(CCN)Cc1c[nH]nc1-c1ccc(F)cc1` [Compound 62]: on Full-length human PRMT3, the IC50 was 3.01 to 10 µM. For the same compound, the EC30 in test [1] (setting [2]) is > 12 µM.

For the compound `CNCCN(C)Cc1cnn(CC2CCOCC2)c1-c1ccc(F)cc1` [Compound 12], the IC50 against Full-length human PRMT3 was > 10 µM. In test [1] (setting [2]), the 30% effect concentration (EC30) was > 12 µM.

Turning to `CN(CCN)Cc1cnn(CC2COC2)c1-c1ccc(F)cc1` [Compound 80], the IC50 on Full-length human PRMT3 is > 10 µM. Besides, the EC30 in test [1] (setting [2]) was > 12 µM.

For the compound `CNCCN(C)Cc1c[nH]nc1-c1cccc2ccccc12` [Compound 57], the IC50 against Full-length human PRMT3 was 3.01 to 10 µM. Moreover, in test [1] (setting [2]), the EC30 is > 12 µM.

Source of the values: patent publication US9346761B2, “Arginine methyltransferase inhibitors and uses thereof” (Epizyme, Inc., priority 2013, dated 2016).
